The values that follow come from ChEMBL document CHEMBL5625221, “Discovery of indolinone-bearing benzenesulfonamides as new dual carbonic anhydrase and VEGFR-2 inhibitors possessing anticancer and pro-apoptotic properties” (Eur J Med Chem, 2023).

The test system of one test is Caco-2. Briefly: cells. The conditions noted are these: Homo sapiens, Caco-2, 24 h.
The target of a further test is Carbonic anhydrase 9 (Homo sapiens, UniProt Q16790). Kind of test: Inhibition of human carbonic anhydrase 9 assessed as inhibition constant preincubated for 15 mins by phenol red dye based stopped flow CO2 hydration assay.
For test [1], the system named is MDA-MB-231. Briefly: cells. The conditions noted are these: Homo sapiens, MDA-MB-231, 48 h.
Description: Antiproliferative activity against human MDA-MB-231 cells assessed as inhibition of cell growth incubated for 48 hrs by MTT reagent based ELISA
The subject of test [2] is MCF7. Kind of test: cells. The note with it: Homo sapiens, MCF7, 48 h.
Description: Antiproliferative activity against human MCF7 cells assessed as inhibition of cell growth incubated for 48 hrs by MTT reagent based ELISA
The target in test [3] is Vascular endothelial growth factor receptor 2 (Homo sapiens, UniProt P35968). Kind of test: Inhibition of VEGFR-2 (unknown origin) using biotinylated poly(Glu-Tyr) at 4:1 ratio as substrate in presence of ATP incubated for 5 mins by ELISA. Background: An ELISA detects its analyte on a solid surface through an enzyme-linked reagent.
For test [4], the system named is MDA-MB-231. Kind of test: Induction of apoptosis in human MDA-MB-231 cells assessed as active caspase-3 protein level incubated for 24 hrs by ELISA. Type of test: functional.
The test system of test [5] is MDA-MB-231. Briefly: Induction of apoptosis in human MDA-MB-231 cells assessed as BCL-2 protein level incubated for 24 hrs by ELISA. Type of test: functional.
The subject of test [6] is MDA-MB-231. Briefly: Induction of apoptosis in human MDA-MB-231 cells assessed as decrease in BCL-2 protein level incubated for 24 hrs by ELISA relative to control. Type of test: functional. The arrangement: scale not given: the % may be the effect or the level left.
The subject of test [7] is MDA-MB-231. Kind of test: Induction of apoptosis in human MDA-MB-231 cells assessed as Bax protein level incubated for 24 hrs by ELISA. Format: functional.
For test [8], the system named is MCF7. Briefly: cells. The conditions noted are these: Homo sapiens, MCF7, 48 h. The source holds these as a separate data set.
Description: Antiproliferative activity against human MCF7 cells assessed as inhibition of cell growth incubated for 48 hrs by WST-1 reagent based ELISA
A further test relates to HCT-116. Kind of test: cells. The note with it: Homo sapiens, HCT-116, 48 h.

Molecules are shown by their SMILES.

Chain of Vascular endothelial growth factor receptor 2 (P35968 whole entry): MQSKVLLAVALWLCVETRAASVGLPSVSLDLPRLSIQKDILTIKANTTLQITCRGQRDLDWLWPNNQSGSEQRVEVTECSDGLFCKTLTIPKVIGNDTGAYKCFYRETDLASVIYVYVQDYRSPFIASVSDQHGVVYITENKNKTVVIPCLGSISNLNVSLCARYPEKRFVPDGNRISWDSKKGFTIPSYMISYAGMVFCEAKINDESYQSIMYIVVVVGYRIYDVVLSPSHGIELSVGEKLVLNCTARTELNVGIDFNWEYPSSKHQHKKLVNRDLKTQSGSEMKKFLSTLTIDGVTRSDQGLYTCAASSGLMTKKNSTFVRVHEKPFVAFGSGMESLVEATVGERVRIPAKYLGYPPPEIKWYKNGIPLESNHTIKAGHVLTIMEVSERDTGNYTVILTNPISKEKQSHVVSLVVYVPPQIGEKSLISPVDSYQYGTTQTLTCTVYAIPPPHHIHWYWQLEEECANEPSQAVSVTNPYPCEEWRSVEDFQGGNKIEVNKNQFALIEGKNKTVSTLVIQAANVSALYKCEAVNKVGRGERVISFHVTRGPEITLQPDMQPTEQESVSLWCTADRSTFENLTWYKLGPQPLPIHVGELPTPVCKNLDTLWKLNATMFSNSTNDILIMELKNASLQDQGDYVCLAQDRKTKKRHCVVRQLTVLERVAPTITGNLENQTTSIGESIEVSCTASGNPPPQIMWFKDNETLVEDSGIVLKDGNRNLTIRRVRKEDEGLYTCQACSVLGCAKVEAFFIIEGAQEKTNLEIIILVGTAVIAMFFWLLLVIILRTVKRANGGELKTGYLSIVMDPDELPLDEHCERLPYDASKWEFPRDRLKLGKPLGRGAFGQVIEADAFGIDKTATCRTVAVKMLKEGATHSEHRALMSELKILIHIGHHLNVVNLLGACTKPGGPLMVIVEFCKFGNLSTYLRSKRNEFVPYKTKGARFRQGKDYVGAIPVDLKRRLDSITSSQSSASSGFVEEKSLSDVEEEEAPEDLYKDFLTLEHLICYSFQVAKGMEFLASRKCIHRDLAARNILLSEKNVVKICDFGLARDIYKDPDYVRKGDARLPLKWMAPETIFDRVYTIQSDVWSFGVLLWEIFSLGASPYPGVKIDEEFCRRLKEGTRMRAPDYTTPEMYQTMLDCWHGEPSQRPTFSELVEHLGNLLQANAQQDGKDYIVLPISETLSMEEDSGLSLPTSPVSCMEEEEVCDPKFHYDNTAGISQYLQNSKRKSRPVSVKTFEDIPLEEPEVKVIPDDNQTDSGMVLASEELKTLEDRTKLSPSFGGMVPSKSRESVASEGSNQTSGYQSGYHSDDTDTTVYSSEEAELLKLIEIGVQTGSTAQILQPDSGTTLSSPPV
Description for Caco-2: Antiproliferative activity against human Caco-2 cells assessed as inhibition of cell growth incubated for 24 hrs by MTS assay
Description for HCT-116: Antiproliferative activity against human HCT-116 cells assessed as inhibition of cell growth incubated for 48 hrs by WST-1 reagent based ELISA

`O=C(CN1C(=O)S/C(=C2/C(=O)Nc3ccccc32)C1=O)Nc1ccccc1` came in with a half-maximal inhibitory concentration (IC50) in the test on Caco-2 of 9300 nM.

For `CC(C(=O)Nc1ccc(S(N)(=O)=O)cc1)N1CCCC(C(=O)N/N=C2\C(=O)Nc3cc(Br)ccc32)C1` (centres undefined), on Carbonic anhydrase 9, the inhibitory constant (Ki) was determined as 9.8 nM.

`COc1ccc2c(c1)NC(=O)C2=NNC(=O)C1CCCN(C(C)C(=O)Nc2ccc(S(N)(=O)=O)cc2)C1` (centres undefined): the figures for the IC50 (with MDA-MB-231 [1]; in the test with MCF7 [2]; in test [3]) were 7200 nM, 11300 nM and 358 nM, respectively. Moreover, the inhibitory constant (Ki) at Carbonic anhydrase 9 was found to be 4.2 nM.

As to `NS(=O)(=O)c1ccc(NC(=O)CN2CCCC(C(=O)NN=C3C(=O)Nc4cc(F)ccc43)C2)cc1` (centres undefined), the Ki at Carbonic anhydrase 9 was found to be 35.4 nM.

As to `NS(=O)(=O)c1ccc(NC(=O)CN2CCCC(C(=O)N/N=C3\C(=O)N(Cc4ccccc4)c4ccccc43)C2)cc1` (centres undefined), the Ki on Carbonic anhydrase 9 is 21.4 nM.

Consider `CN1C(=O)/C(=N\NC(=O)C2CCCN(CC(=O)Nc3ccc(S(N)(=O)=O)cc3)C2)c2ccccc21` (centres undefined), for which, at Carbonic anhydrase 9, the Ki turned out to be 33.5 nM.

As for `NS(=O)(=O)c1ccc(NC(=O)CN2CCC(C(=O)NN=C3C(=O)Nc4ccc(Cl)cc43)CC2)cc1`, the Ki on Carbonic anhydrase 9 was 14.3 nM.

In the case of `NS(=O)(=O)c1ccc(NC(=O)CN2CCC(C(=O)NN=C3C(=O)Nc4ccc(Br)cc43)CC2)cc1`, the Ki on Carbonic anhydrase 9 was 27.9 nM.

As for `NS(=O)(=O)c1ccc(NC(=O)CN2CCCC(C(=O)N/N=C3\C(=O)Nc4cc(Br)ccc43)C2)cc1` (centres undefined), the Ki at Carbonic anhydrase 9 came to 65.9 nM.

Take `NS(=O)(=O)c1ccc(NC(=O)CN2CCC(C(=O)N/N=C3\C(=O)Nc4ccc(F)cc43)CC2)cc1`: the half-maximal inhibitory concentration (IC50) with MDA-MB-231 [1] was determined as 18900 nM; in the test with MCF7 [2], 29300 nM; in test [3] it was 811 nM. Moreover, the inhibitory constant (Ki) on Carbonic anhydrase 9 is 6.2 nM.

For `CC(C(=O)Nc1ccc(S(N)(=O)=O)cc1)N1CCCC(C(=O)N/N=C2\C(=O)N(Cc3ccc(F)cc3)c3ccccc32)C1` (centres undefined), on Carbonic anhydrase 9, the Ki was 9.8 nM.

Turning to `CC(C(=O)Nc1ccc(S(N)(=O)=O)cc1)N1CCCC(C(=O)N/N=C2\C(=O)Nc3cc(F)ccc32)C1` (centres undefined), the inhibition constant (Ki) at Carbonic anhydrase 9 turned out to be 5.1 nM.

`CC(C(=O)Nc1ccc(S(N)(=O)=O)cc1)N1CCCC(C(=O)N/N=C2\C(=O)Nc3cc([N+](=O)[O-])ccc32)C1` (centres undefined): at Carbonic anhydrase 9, the Ki is 29.4 nM.

Take `NS(=O)(=O)c1ccc(NC(=O)CN2CCCC(C(=O)N/N=C3\C(=O)Nc4cc(Cl)ccc43)C2)cc1` (centres undefined): the Ki on Carbonic anhydrase 9 amounted to 22.1 nM.

Regarding `NS(=O)(=O)c1ccc(NC(=O)CN2CCCC(C(=O)N/N=C3\C(=O)Nc4ccccc43)C2)cc1` (centres undefined), the Ki at Carbonic anhydrase 9 was 52.8 nM.

With `NS(=O)(=O)c1ccc(NC(=O)CN2CCC(C(=O)N/N=C3\C(=O)N(Cc4ccccc4)c4ccccc43)CC2)cc1`, the inhibition constant (Ki) at Carbonic anhydrase 9 came out at 12.8 nM.

Regarding `Cc1ccc2c(c1)NC(=O)/C2=N\NC(=O)C1CCCN(CC(=O)Nc2ccc(S(N)(=O)=O)cc2)C1` (centres undefined), the Ki at Carbonic anhydrase 9 turned out to be 15.8 nM.

As to `COc1ccc2c(c1)NC(=O)C2=NNC(=O)C1CCCN(CC(=O)Nc2ccc(S(N)(=O)=O)cc2)C1` (centres undefined), the Ki on Carbonic anhydrase 9 was found to be 19 nM.

Regarding `CC(C(=O)Nc1ccc(S(N)(=O)=O)cc1)N1CCCC(C(=O)N/N=C2\C(=O)Nc3ccccc32)C1` (centres undefined), the IC50 in the test with MDA-MB-231 [1] worked out at 4080 nM; in the test on MCF7 [2] it was 10000 nM; in [3], 204 nM. The Activity was 509 pg/mL in the test on MDA-MB-231 [4], 3.31 ng/mL with MDA-MB-231 [5], 76% in the test on MDA-MB-231 [6] and 265 pg/mL in the test on MDA-MB-231 [7]. At Carbonic anhydrase 9, the Ki was found to be 3.6 nM.

As for `CC(C(=O)Nc1ccc(S(N)(=O)=O)cc1)N1CCCC(C(=O)N/N=C2\C(=O)N(Cc3ccc(Cl)cc3)c3ccccc32)C1` (centres undefined), the Ki at Carbonic anhydrase 9 turned out to be 19.2 nM.

In the case of `NS(=O)(=O)c1ccc(CC/N=C2\C(=O)Nc3ccc(Cl)cc32)cc1`, at Carbonic anhydrase 9, the Ki stood at 28.7 nM. Moreover, the half-inhibitory concentration (IC50) with MCF7 [8] was 23900 nM; in the test on HCT-116, 3670 nM.

`O=c1[nH]cc(F)c(=O)[nH]1` [FLUOROURACIL]: the results for the IC50 in the test on MDA-MB-231 [1] and in the test on MCF7 [2] were 8700 nM and 5170 nM, respectively.

With `NS(=O)(=O)c1ccc(NC(=O)CN2CCC(C(=O)NN=C3C(=O)Nc4ccccc43)CC2)cc1`, the inhibitory constant (Ki) on Carbonic anhydrase 9 stood at 24.8 nM.

As usually defined, the IC50 is the concentration at which inhibition is half-maximal. A word on the Ki: it is a measure of affinity in units of concentration, obtained from inhibition or displacement.
